These results are taken from patent US8633154B2, “Cyclodepsipeptides with antineoplastic activity and methods of using to inhibit cancer and microbial growth” (Arizona Board of Regents, a body corporate of the State of …, priority 2007, dated 2014).

≈ marks a conversion by molar mass, not a printed value. Where only a bound is given, the exact number is not on record here.

Assay type in all cases: cell-based
One experiment concerns SF268. Nature of the experiment: Human cancer cell line growth inhibition, SF268.
In a further experiment the test system is BXPC-3. Nature of the experiment: Human cancer cell line growth inhibition, BXPC-3.
Another experiment relates to KM20L2. In words: Human cancer cell line growth inhibition, KM20L2.
A further experiment concerns NCI-H460. Nature of the experiment: Human cancer cell line growth inhibition, NCI-H460.
The next experiment relates to DU-145. Nature of the experiment: Human cancer cell line growth inhibition, DU-145.
In another experiment the test system is MCF-7. Nature of the experiment: Human cancer cell line growth inhibition, MCF-7.
Experiment [1] concerns Micrococcus luteus Presque Isle 456. Nature of the experiment: Broth microdilution susceptibility assay, Micrococcus luteus. The text has this:
(§1) Cyclodepsipeptides 1 and 2 were screened against the bacteria Stenotrophomonas maltophilia ATCC 13637, Micrococcus luteus Presque Isle 456, Staphylococcus aureus ATCC 29213, Escherichia coli ATCC 25922, Enterobacter cloacae ATCC 13047, Enterococcus faecalis ATCC 29212, Streptococcus pneumoniae ATCC 6303, Neisseria gonorrhoeae ATCC 49226, and the fungi Candida albicans ATCC 90028 and Cryptococcus neoformans ATCC 90112, according to established broth microdilution susceptibility assays.^15,16 Owing to a paucity of material, compound 2 was tested against S. maltophilia, M. luteus, S. aureus, E. coli and C. albicans only. Compounds were reconstituted in a small volume of sterile DMSO and diluted in the appropriate media immediately prior to susceptibility experiments. The minimum inhibitory concentration was defined as the lowest concentration of compound that inhibited all visible growth of the test organism (optically clear). Assays were repeated on separate days.

The subject of experiment [2] is Enterococcus faecalis ATCC 29212. Nature of the experiment: Broth microdilution susceptibility assay, Enterococcus faecalis. To be noted: ATCC29212, read-out: minimum inhibitory concentration [MIC].
Source text: as §1
(In general: Broth dilution looks for growth in wells or tubes with falling amounts of substance.)

The test system of experiment [3] is Cryptococcus neoformans ATCC 90112. Nature of the experiment: Broth microdilution susceptibility assay, Cryptococcus neoformans.
Source text: as §1

In the case of `CC[C@H](C)[C@@H]1OC(=O)[C@H](C)OC(=O)[C@@H](NC(=O)c2cccc(NC=O)c2O)[C@@H](C)OC(=O)[C@H](C(C)C)OC(=O)C(C)(C)C(=O)[C@H](CC(C)C)NC1=O` [Cyclodepsipeptide 2], in the experiment on SF268, the “Inhibition of Human Cancer Cell Lines (GI50) SF268” value stood at 16 ng/mL. The “Inhibition of Human Cancer Cell Lines (GI50) BXPC-3” value in the experiment with BXPC-3 worked out at 1200 ng/mL. Moreover, the “Inhibition of Human Cancer Cell Lines (GI50) KM20L2” value in the experiment on KM20L2 was determined as 0.58 ng/mL. Also, the “Inhibition of Human Cancer Cell Lines (GI50) NCI-H460” value in the experiment on NCI-H460 was found to be 0.63 ng/mL. Further, the “Inhibition of Human Cancer Cell Lines (GI50) DU-145” value in the experiment on DU-145 is less than 0.1 ng/mL. The “Inhibition of Human Cancer Cell Lines (GI50) MCF-7” value with MCF-7 was found to be 0.62 ng/mL. Besides, in experiment [1], the “minimum inhibitory concentration [MIC]” value was 64000 ng/mL (≈ 87200 nM).
In general, GI50 refers to the concentration that inhibits growth by half. Turning to `CCC(C)[C@@H]1OC(=O)[C@H](C)OC(=O)[C@@H](NC(=O)c2cccc(N)c2O)[C@@H](C)OC(=O)[C@H](CC(C)C)OC(=O)C(C)(C)C(=O)[C@H](CC(C)C)NC1=O` (stereo partly shown) [Cyclodepsipeptide 3, Kitastatin 1], the MIC in experiment [2] amounted to 64000 ng/mL (≈ 88900 nM); in experiment [3] (ATCC90112, read-out: minimum inhibitory concentration [MIC]), 64000 ng/mL (≈ 88900 nM). In addition, the GI50 in the experiment on SF268 (Homo sapiens, SF-268, read-out: Inhibition of Human Cancer Cell Lines (GI50) SF268) is 3.5 ng/mL (≈ 4.86 nM); with BXPC-3 (Homo sapiens, read-out: Inhibition of Human Cancer Cell Lines (GI50) BXPC-3) it was 6.6 ng/mL (≈ 9.17 nM); in the experiment with KM20L2 (Homo sapiens, KM-20L2, read-out: Inhibition of Human Cancer Cell Lines (GI50) KM20L2), 2.4 ng/mL (≈ 3.33 nM); in the experiment on NCI-H460 (Homo sapiens, read-out: Inhibition of Human Cancer Cell Lines (GI50) NCI-H460), less than 1 ng/mL; in the experiment on DU-145 (Homo sapiens, read-out: Inhibition of Human Cancer Cell Lines (GI50) DU-145), 2.6 ng/mL (≈ 3.61 nM); with MCF-7 (Homo sapiens, MCF7, read-out: Inhibition of Human Cancer Cell Lines (GI50) MCF-7) it was 4 ng/mL (≈ 5.56 nM).
On to `CCC(C)[C@@H]1OC(=O)[C@H](C)OC(=O)[C@@H](NC(=O)c2cccc(NC=O)c2O)[C@@H](C)OC(=O)[C@H](CC(C)C)OC(=O)C(C)(C)C(=O)[C@H](CC(C)C)NC1=O` (stereo partly shown) [Cyclodepsipeptide 1, respirantin], for which, in experiment [3] (broth microdilution), the “minimum inhibitory concentration [MIC]” value is 2000 ng/mL (≈ 2670 nM). Besides, the “Inhibition of Human Cancer Cell Lines (GI50) SF268” value with SF268 came out at 1.6 ng/mL. Besides, the “Inhibition of Human Cancer Cell Lines (GI50) BXPC-3” value with BXPC-3 amounted to 470 ng/mL. The “Inhibition of Human Cancer Cell Lines (GI50) KM20L2” value with KM20L2 came out at 0.6 ng/mL. Moreover, in the experiment with NCI-H460, the “Inhibition of Human Cancer Cell Lines (GI50) NCI-H460” value came to 0.6 ng/mL. The “Inhibition of Human Cancer Cell Lines (GI50) DU-145” value with DU-145 was found to be 0.18 ng/mL. For the same compound, the “Inhibition of Human Cancer Cell Lines (GI50) MCF-7” value in the experiment on MCF-7 is 0.6 ng/mL.
